Columns and labels:
[1] = target: Survival motor neuron protein (Homo sapiens) (UniProt Q16637); assay: Modulation of human SMN2 level in NSC34 cells assessed as fold change by ELISA; format: cell-based
[2] = target: T1, von Hippel-Lindau disease tumor suppressor (Homo sapiens, UniProt P40337); assay: Binding affinity to VHL E3 ligase (unknown origin) by fluorescence polarization (FP) assay
[3] = target: T1, von Hippel-Lindau disease tumor suppressor; assay: Binding affinity to VHL E3 ligase (unknown origin) assessed as dissociation constant by isothermal titration calorimetry assay

Survival motor neuron protein (Homo sapiens), sequence (Q16637 whole entry): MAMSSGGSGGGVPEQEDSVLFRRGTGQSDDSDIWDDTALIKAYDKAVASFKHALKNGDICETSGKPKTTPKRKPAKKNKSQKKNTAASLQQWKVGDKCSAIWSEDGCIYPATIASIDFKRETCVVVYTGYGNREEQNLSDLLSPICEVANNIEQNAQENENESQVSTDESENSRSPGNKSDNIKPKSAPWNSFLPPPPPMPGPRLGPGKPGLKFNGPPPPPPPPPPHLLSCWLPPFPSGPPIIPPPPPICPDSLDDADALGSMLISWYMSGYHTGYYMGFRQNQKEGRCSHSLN
T1 sequence (P40337 whole entry): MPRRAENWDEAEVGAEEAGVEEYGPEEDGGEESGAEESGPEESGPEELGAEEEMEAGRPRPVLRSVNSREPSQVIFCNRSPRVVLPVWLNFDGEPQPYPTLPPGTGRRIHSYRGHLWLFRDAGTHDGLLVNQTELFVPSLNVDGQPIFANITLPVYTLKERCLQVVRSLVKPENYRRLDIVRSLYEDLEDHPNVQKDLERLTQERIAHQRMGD

| SMILES | EC1.5 ([1]; NSC-34, filed as modulator) [nM] | fold change (FC) ([1]; NSC-34, filed as modulator) | further results |
| --- | --- | --- | --- |
| Cc1cn2nc(-c3cc(=O)n4cc(N5CCNC6(CC6)C5)ccc4n3)cc(C)c2n1 | 4 |  |  |
| Cc1cn2cc(-c3cc(=O)n4cc(N5CCN(C)CC5)ccc4n3)cc(F)c2n1 | 15 |  |  |
| CCN1CCN(c2ccc3nc(-c4cc5c(C)nc(C)cn5n4)cc(=O)n3c2)CC1 | 30 |  |  |
| Oc1cc(-n2cccn2)ccc1-c1ccc(OC2CCNCC2(F)F)nn1 (centres undefined) |  | 1.2 |  |
| CN(c1ccc(-c2ccc(-c3cn[nH]c3)cc2O)nn1)C1CC(C)(C)NC(C)(C)C1 |  | 3.1 |  |
| CCc1nc(C)cn2nc(-c3cc(=O)n4cc(N5CCN(CC)CC5)ccc4n3)cc12 | 23 |  |  |
| CCCCC(=O)NCCC(=O)N1CCN(c2ccc3nc(-c4cc(F)c5nc(C)cn5c4)cc(=O)n3c2)CC1 |  |  | EC1.5 ([1]; NSC-34): > 1000 nM |
| Cc1cn2nc(-c3cc(=O)n4cc(N5CCN(C)CC5)ccc4n3)cc2c(C)n1 | 170 |  |  |
| CC1(C)CC(Oc2ccc(-c3ccc(-n4cccn4)cc3O)nn2)CC(C)(C)N1 |  | 3.3 |  |
| CC1(C)CC(Oc2ccc(-c3ccc(-c4cn[nH]c4)cc3O)nn2)CC(C)(C)N1 |  | 3.6 |  |
| COC(=O)c1ccc(CNC(=O)[C@@H]2C[C@@H](O)CN2C(=O)CC(C)(C)C)cc1 |  |  | IC50 [2]: 53.2 µM; Kd [3]: 45.5 µM |
| CN(c1ccc(-c2ccc(-n3cccn3)cc2O)nn1)C1CC(C)(C)NC(C)(C)C1 |  | 3.1 |  |
| C=C(CCNC(=O)CCCC)N1CCN(c2ccc3nc(-c4cc(F)c5nc(C)cn5c4)cc(=O)n3c2)CC1 | 43 |  |  |
